One data set concerns the target T1, cathepsin K (Homo sapiens, UniProt P43235).
T1 sequence (P43235 115-329): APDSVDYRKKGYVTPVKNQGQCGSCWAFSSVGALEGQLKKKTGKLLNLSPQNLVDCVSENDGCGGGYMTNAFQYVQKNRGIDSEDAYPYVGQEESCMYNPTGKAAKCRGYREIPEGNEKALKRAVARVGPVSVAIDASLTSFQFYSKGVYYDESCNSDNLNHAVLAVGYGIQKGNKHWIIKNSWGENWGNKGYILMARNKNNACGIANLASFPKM
The data set is described as follows: In vitro cathepsin Ki inhibition measurements. The class given is biochemical. Further details: purchased B. Turk, Josef Stefan Institute, Ljubljana, Slovenia. How it is done:
Stock solutions of substrate or inhibitor were made up to 10 mM in 100% dimethylsulfoxide (DMSO) (Rathburns, Glasgow, U.K.) and diluted as appropriately required. In all cases the DMSO concentration in the assays was maintained at less than 1% (vol./vol.). The equilibrium inhibition constants (Ki^SS) for each compound were measured under steady-state conditions monitoring enzyme activity as a function of inhibitor concentration. The values were calculated on the assumption of pure competitive behaviour (Cornish-Bowden, A. Fundamentals of enzyme kinetics Portland Press; 1995, 93-128). Human recombinant cathepsin K (0.25 nM final; B. Turk, Josef, Stefan Institute, Ljubljana, Slovenia), was routinely assayed in 100 mM sodium acetate; pH 5.5 containing 1 mM EDTA, 10 mM L-cysteine and 1.8 μM Z-Leu-Arg-AMC ([S]═KM).
The apparent inhibition constant (Ki) for each compound was determined on the basis that inhibition was reversible and occurred by a pure-competitive mechanism. The Ki values were calculated, from the dependence of enzyme activity as a function of inhibitor concentration, by direct regression analysis (Prism v 3.02) using Equation 2 (Cornish-Bowden, A., 1995).
In situations where the apparent dissociation constant (Ki^app) approached the enzyme concentrations, the Ki^app values were calculated using a quadratic solution in the form described by Equation 3 (Morrison, J. F. Trends Biochem. Sci., 7, 102-105, 1982; Morrison, J. F. Biochim. Biophys. Acta, 185, 269-286, 1969; Stone, S. R. and Hofsteenge, J. Biochemistry, 25, 4622-4628, 1986).
Curves were fitted by non-linear regression analysis (Prism) using a fixed value for the enzyme concentration. Equation 4 was used to account for the substrate kinetics, where ‘Ki’ is the inhibition constant, ‘[So]’ is the initial substrate concentration and ‘KM^app’ is the apparent macroscopic binding (Michaelis) constant for the substrate (Morrison, 1982).

The next data set in a line: LogD determinations. To be noted: Ion-count method; for logD at 1 h: 1-octanol/phosphate buffered saline, pH 7.4, pH 7.4. The class given is physicochemical.
In another data set the test system is human osteoclasts. The data set is described as follows: Human osteoclast resorption assay. The class given is cell-based. To be noted: Homo sapiens, Osteoclast, 48 h, 1 □ M, read-out: Cell-based % Inh. @ 1 □ M Human. How it is done:
Bone resorption was studied using a model where human osteoclast precursor cells were cultured on bovine bone slices for 9 days and allowed to differentiate into bone-resorbing osteoclasts. The formed mature osteoclasts were then allowed to resorb bone. The assay was performed by Pharmatest Services Ltd, Itäinen Pitkakatu 4C, Turku, Finland. After the culture period, bone collagen degradation products were quantified from the culture medium as an index of bone resorption. Inhibitor compounds were added into the cell cultures after the differentiation period and their effects on the resorbing activity of mature osteoclasts were determined. The studies included a baseline group without added compounds and a positive control group where a potent cathepsin K inhibitor E-64 was added.
Human peripheral blood monocytes were suspended to culture medium and allowed to attach to bovine bone slices. The bone slices were transferred into 96-well tissue culture plates containing culture medium with appropriate amounts of important growth factors favouring osteoclast differentiation, including M-CSF, RANK-ligand and TGF-[…]. The cells were incubated in a CO2 incubator in humidified atmosphere of 95% air and 5% carbon dioxide at 37° C. At day 7 when osteoclast differentiation was complete, the culture medium was replaced with culture medium containing conditions favouring osteoclast activity. The cell culture was continued for an additional 2 days, during which the formed mature osteoclasts were allowed to resorb bone in the presence of vehicle, control inhibitor (E64) or test compounds. At the end of the culture, bone collagen degradation products released into the culture medium were determined using a commercially available ELISA method (CrossLaps® for culture, Nordic Bioscience, Herlev, Denmark) as an index of bone resorption (see Bagger, Y. Z. et al, J. Bone. Miner. Res. 14 (suppl. 1), S370).

The nature of data set [1]: Plasma incubations (human plasma stability). Also: tested at 25 µM. To be noted: 37° C. The class given is in vitro ADME.
Method: Aliquots were removed at 2 and 60 minutes and quenched with an equal volume of cold acetonitrile. After mixing vigorously, the precipitated protein matter was removed by filtration (Multiscreen Solvinert filter plates, Millipore, Bedford, Mass., USA) and the filtrate analysed by reverse phase HPLC with mass spectrometric detection, using single ion monitoring of the [M+H]^+ species. Metabolic turnover was determined by comparison of peak areas from the ion chromatograms of the parent compound at 2 and 60 minutes and expressed as percent remaining at 1 hour.
Setting [2] is: prior art examples of WO-A-02057270, recombinant human cathepsin K, read-out: Ki (nM) vs Human Cathepsin K.
[3] abbreviates: human recombinant cathepsin K, read-out: In vitro Ki (nM) vs Cath K.

Like-named read-outs stand apart in the source and are kept apart here.

Method for LogD determinations: LogD(PBS) determinations were performed in 96 well microtitre plates using a miniaturised “shake-flask” method. […] The plates were then capped and mixed vigorously for 1 hour on a microtitre plate shaker, after which they were left to stand, allowing the PBS and octanol phases to separate. The PBS layer was analysed by reverse phase HPLC with mass spectrometric detection, using single ion monitoring of the [M+H]^+ species.
Where AUCstd and AUCpbs are the peak areas from the standard and test ion chromatograms respectively.

The Ki is the dissociation constant of the complex between target and ligand, obtained from inhibition or displacement. Take “N—((S)-1-((3aS,6R,6aS)-6-methoxy-3-oxodihydro-2H-furo[3,2-b]pyrrol-4(5H,6H,6aH)-yl)-4-methyl-1-oxopentan-2-yl)-4-(4-methylpiperazin-1-yl)benzamide [Example 3]”: the Ki at cathepsin K (setting [2]) is > 4000 nM.

Broadly, the logD is the decadic logarithm of the distribution of all forms, ionised or not, between an organic phase and buffer at a given pH. With `CO[C@H]1CN(C(=O)[C@H](CC(C)C)NC(=O)c2ccc(N3CCN(C)CC3)cc2)[C@@H]2C(=O)CO[C@H]12` [Example 1, N—((S)-1-((3aS,6S,6aS)-6-methoxy-3-oxodihydro-2H-furo[3,2-b]pyrrol-4(5H,6H,6aH)-yl)-4-methyl-1-oxopentan-2-yl)-4-(4-methylpiperazin-1-yl)benzamide], the Ki at cathepsin K (setting [3]) was 5.6 nM. For the same compound, in the data set “LogD determinations”, the logD at 1 h is > 0.8 and the “LogD pH 7.4” value was found to be 1.18. Besides, in the data set on human osteoclasts, the inhibition at 1 µM was in the range of 63 to 88%. Also, the “Human Plasma Stability % rem. @ 1 h” value in data set [1] is on record as 96%. Take `CO[C@@H]1CN(C(=O)[C@H](CC(C)C)NC(=O)c2ccc(N3CCN(C)CC3)cc2)[C@@H]2C(=O)CO[C@@H]21` [Example 3, N—((S)-1-((3aS,6R,6aS)-6-methoxy-3-oxodihydro-2H-furo[3,2-b]pyrrol-4(5H,6H,6aH)-yl)-4-methyl-1-oxopentan-2-yl)-4-(4-methylpiperazin-1-yl)benzamide]: at cathepsin K (setting [3]), the Ki is 15.1 nM. Also, in the data set “LogD determinations”, the “LogD pH 7.4” value turned out to be 0.42. Further, in data set [1], the “Human Plasma Stability % rem. @ 1 h” value is listed as 87%. As for “N—((S)-1-((3aS,6R,6aS)-6-methoxy-3-oxodihydro-2H-furo[3,2-b]pyrrol-4(5H,6H,6aH)-yl)-4,4-dimethyl-1-oxopentan-2-yl)-4-(4-methylpiperazin-1-yl)benzamide [Example 4]”, on cathepsin K (setting [2]), the inhibition constant (Ki) is > 100000 nM. For `CCCN1CCN(c2ccc(C(=O)N[C@@H](CC(C)C)C(=O)N3C[C@H](OC)[C@H]4OCC(=O)[C@H]43)cc2)CC1` [Example 13, N—((S)-1-((3aS,6S,6aS)-6-methoxy-3-oxodihydro-2H-furo[3,2-b]pyrrol-4(5H,6H,6aH)-yl)-4-methyl-1-oxopentan-2-yl)-4-(4-propylpiperazin-1-yl)benzamide], at cathepsin K (setting [3]), the Ki is 3.9 nM. The “LogD pH 7.4” value in “LogD determinations” came to 1.64. Further, the “Human Plasma Stability % rem. @ 1 h” value in data set [1] was 93%. With “N—((S)-1-((3aS,6S,6aS)-6-methoxy-3-oxodihydro-2H-furo[3,2-b]pyrrol-4(5H,6H,6aH)-yl)-4-methyl-1-oxopentan-2-yl)-4-(4-methylpiperazin-1-yl)benzamide [Example 1]”, the Ki on cathepsin K (setting [2]) is > 20000 nM. Same read-out and setting: next, “N—((S)-1-((3aS,6R,6aS)-6-methoxy-3-oxodihydro-2H-furo[3,2-b]pyrrol-4(5H,6H,6aH)-yl)-4,4-dimethyl-1-oxopentan-2-yl)-4-(1-propylpiperidin-4-yl)benzamide [Example 38]”: > 4000 nM; “N—((S)-1-((3aS,6S,6aS)-6-methoxy-3-oxodihydro-2H-furo[3,2-b]pyrrol-4(5H,6H,6aH)-yl)-4-methyl-1-oxopentan-2-yl)-4-(4-(2-methoxyethyl)piperazin-1-yl)benzamide [Example 27]”: > 20000 nM. `CCN1CCN(c2ccc(C(=O)N[C@H](C(=O)N3C[C@H](OC)[C@H]4OCC(=O)[C@H]43)C3CCCC3)cc2)CC1`: the Ki on cathepsin K (setting [3]) is 3.6 nM. This compound also registered a logD at 1 h in “LogD determinations” of 1.59. Further, in data set [1], the “Human Plasma Stability % rem. @ 1 h” value came out at 90.9%. In the case of “4-(4-ethylpiperazin-1-yl)-N—((S)-1-((3aS,6S,6aS)-6-methoxy-3-oxodihydro-2H-furo[3,2-b]pyrrol-4(5H,6H,6aH)-yl)-4,4dimethyl-1-oxopentan-2-yl)benzamide [Example 6]”, the Ki on cathepsin K (setting [2]) is > 20000 nM. For the compound `COCCN1CCN(c2ccc(C(=O)N[C@@H](CC(C)C)C(=O)N3C[C@@H](N)[C@H]4OCC(=O)[C@H]43)cc2)CC1` [Example 24, N—((S)-1-((3aS,6R,6aR)-6-amino-3-oxodihydro-2H-furo[3,2-b]pyrrol-4(5H,6H,6aH)-yl)-4-methyl-1-oxopentan-2-yl)-4-(4-(2-methoxyethyl)piperazin-1-yl)benzamide], the Ki at cathepsin K (setting [3]) turned out to be 3.5 nM. In the data set “LogD determinations”, the pH-dependent lipophilicity (logD) at 1 h is 0.01 to 0.76 and the “LogD pH 7.4” value is listed as 0.01. Further, in data set [1], the “Human Plasma Stability % rem. @ 1 h” value stood at 96%. With `CCCN1CCN(c2ccc(C(=O)N[C@@H](CC(C)(C)C)C(=O)N3C[C@H](OC)[C@H]4OCC(=O)[C@H]43)cc2)CC1` [Example 14, N—((S)-1-((3aS,6S,6aS)-6-methoxy-3-oxodihydro-2H-furo[3,2-b]pyrrol-4(5H,6H,6aH)-yl)-4,4-dimethyl-1-oxopentan-2-yl)-4-(4-propylpiperazin-1-yl)benzamide], the Ki at cathepsin K (setting [3]) stood at 8.6 nM. Besides, in the data set “LogD determinations”, the “LogD pH 7.4” value was found to be 1.74. Moreover, in data set [1], the “Human Plasma Stability % rem. @ 1 h” value turned out to be 98%. For the compound “N—((S)-1-((3aS,6S,6aR)-6-amino-3-oxodihydro-2H-furo[3,2-b]pyrrol-4(5H,6H,6aH)-yl)-4-methyl-1-oxopentan-2-yl)-4-(4-(2-methoxyethyl)piperazin-1-yl)benzamide [Example 23]”, the Ki on cathepsin K (setting [2]) is > 3000 nM. In the case of `CCN1CCN(c2ccc(C(=O)N[C@@H](CC(C)(C)C)C(=O)N3C[C@H](OC)[C@H]4OCC(=O)[C@H]43)cc2)CC1` [Example 6, 4-(4-ethylpiperazin-1-yl)-N—((S)-1-((3aS,6S,6aS)-6-methoxy-3-oxodihydro-2H-furo[3,2-b]pyrrol-4(5H,6H,6aH)-yl)-4,4dimethyl-1-oxopentan-2-yl)benzamide], the Ki at cathepsin K (setting [3]) turned out to be 5.1 nM. Moreover, in “LogD determinations”, the logD at 1 h is > 0.8 and the “LogD pH 7.4” value is given as 1.46. Moreover, in data set [1], the “Human Plasma Stability % rem. @ 1 h” value was found to be 100%.

On to “N—((S)-1-((3aS,6R,6aS)-6-methoxy-3-oxodihydro-2H-furo[3,2-b]pyrrol-4(5H,6H,6aH)-yl)-4-methyl-1-oxopentan-2-yl)-4-(4-(2-methoxyethyl)piperazin-1-yl)benzamide [Example 28]”, for which the Ki on cathepsin K (setting [2]) is > 2500 nM.

In the case of “4-(4-ethylpiperazin-1-yl)-N—((S)-1-((3aS,6R,6aS)-6-methoxy-3-oxodihydro-2H-furo[3,2-b]pyrrol-4(5H,6H,6aH)-yl)-4-methyl-1-oxopentan-2-yl)benzamide [Example 7]”, the Ki at cathepsin K (setting [2]) is > 15000 nM. On the same count and under the same terms, the figure for “N—((S)-1-((3aS,6R,6aS)-6-hydroxy-3-oxodihydro-2H-furo[3,2-b]pyrrol-4(5H,6H,6aH)-yl)-4-methyl-1-oxopentan-2-yl)-4-(4-(2-methoxyethyl)piperazin-1-yl)benzamide [Example 26]” is > 8000 nM.

Turning to “N—((S)-1-((3aS,6S,6aS)-6-methoxy-3-oxodihydro-2H-furo[3,2-b]pyrrol-4(5H,6H,6aH)-yl)-4,4-dimethyl-1-oxopentan-2-yl)-4-(4-methylpiperazin-1-yl)benzamide [Example 2]”, the Ki at cathepsin K (setting [2]) was > 50000 nM. The same measure, in the same setting: the figure for “4-(4-ethylpiperazin-1-yl)-N—((S)-1-((3aS,6S,6aS)-6-methoxy-3-oxodihydro-2H-furo[3,2-b]pyrrol-4(5H,6H,6aH)-yl)-4-methyl-1-oxopentan-2-yl)benzamide [Example 5]” is > 100000 nM; for “N—((S)-1-((3aS,6R,6aR)-6-amino-3-oxodihydro-2H-furo[3,2-b]pyrrol-4(5H,6H,6aH)-yl)-4-methyl-1-oxopentan-2-yl)-4-(4-(2-methoxyethyl)piperazin-1-yl)benzamide [Example 24]” it is > 2000 nM.

The record behind these values is patent US7803803B2, “Tetrahydrofuro[3,2-B] pyrrol-3-ones as cathepsin K inhibitors” (Amura Therapeutics Limited, priority 2007, dated 2010).
